Experimental data from publication PMC10054454, “Phenotypic Discovery of Thiocarbohydrazone with Anticancer Properties and Catalytic Inhibition of Human DNA Topoisomerase IIα” (Pharmaceuticals, 2023).

How the values were obtained:
[1] = target: T1, human DNA topoisomerase IIα (Homo sapiens, UniProt P11388); experiment: topo IIα-mediated kDNA decatenation and supercoiled pBR322 relaxation gel assays; HTS relaxation assay; cleavage assay (not a poison); assay type: biochemical
T1 construct: gene TOP2A

[2] = target: T1, human DNA topoisomerase IIα; experiment: topo IIα cleavage assay (linear plasmid accumulation), HTS relaxation and decatenation assays; assay type: biochemical

T1 sequence (P11388 whole entry): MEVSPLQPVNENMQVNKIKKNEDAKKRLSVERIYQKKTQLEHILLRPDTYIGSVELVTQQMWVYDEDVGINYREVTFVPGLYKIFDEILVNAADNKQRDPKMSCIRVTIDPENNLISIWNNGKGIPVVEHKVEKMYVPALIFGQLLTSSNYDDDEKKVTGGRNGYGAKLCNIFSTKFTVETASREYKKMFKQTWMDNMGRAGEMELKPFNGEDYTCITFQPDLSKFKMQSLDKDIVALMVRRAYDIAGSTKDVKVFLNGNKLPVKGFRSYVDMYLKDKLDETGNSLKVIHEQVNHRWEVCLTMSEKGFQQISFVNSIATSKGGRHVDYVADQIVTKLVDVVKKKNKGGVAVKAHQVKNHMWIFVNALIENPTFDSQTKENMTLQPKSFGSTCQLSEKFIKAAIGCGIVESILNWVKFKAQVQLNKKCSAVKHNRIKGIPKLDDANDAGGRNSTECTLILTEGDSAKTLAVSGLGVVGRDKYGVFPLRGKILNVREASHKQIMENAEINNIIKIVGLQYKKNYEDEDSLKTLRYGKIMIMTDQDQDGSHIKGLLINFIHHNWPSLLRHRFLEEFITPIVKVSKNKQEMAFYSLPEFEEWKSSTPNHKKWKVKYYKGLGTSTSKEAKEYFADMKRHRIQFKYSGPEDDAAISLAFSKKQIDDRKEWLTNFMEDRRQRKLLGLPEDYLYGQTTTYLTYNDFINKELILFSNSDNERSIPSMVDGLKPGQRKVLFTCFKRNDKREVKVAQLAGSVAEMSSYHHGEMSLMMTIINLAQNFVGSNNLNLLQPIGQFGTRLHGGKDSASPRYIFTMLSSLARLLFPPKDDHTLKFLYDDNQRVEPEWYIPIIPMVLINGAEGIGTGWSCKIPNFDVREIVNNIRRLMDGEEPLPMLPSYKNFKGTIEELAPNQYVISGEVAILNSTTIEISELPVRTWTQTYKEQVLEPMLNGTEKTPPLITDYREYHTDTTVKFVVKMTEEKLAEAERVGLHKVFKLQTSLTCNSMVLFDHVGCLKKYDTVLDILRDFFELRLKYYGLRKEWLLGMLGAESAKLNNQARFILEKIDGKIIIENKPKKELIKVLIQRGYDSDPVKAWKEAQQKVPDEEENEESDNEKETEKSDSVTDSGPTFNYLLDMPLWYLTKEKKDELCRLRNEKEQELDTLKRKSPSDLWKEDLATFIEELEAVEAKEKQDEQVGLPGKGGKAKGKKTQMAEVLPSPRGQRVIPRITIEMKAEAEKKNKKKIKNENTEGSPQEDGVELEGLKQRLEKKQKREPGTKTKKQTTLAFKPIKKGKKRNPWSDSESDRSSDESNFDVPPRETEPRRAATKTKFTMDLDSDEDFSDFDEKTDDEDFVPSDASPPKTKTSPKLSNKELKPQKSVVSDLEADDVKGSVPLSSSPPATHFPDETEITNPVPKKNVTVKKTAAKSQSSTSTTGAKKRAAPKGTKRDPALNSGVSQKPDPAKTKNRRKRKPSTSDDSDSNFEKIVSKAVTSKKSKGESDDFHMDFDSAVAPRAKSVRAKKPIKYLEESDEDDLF

## Oc1ccccc1C=NNC(=S)NN=Cc1ccccc1O [compound 2, 1,5-bis(salicylidene)thiocarbohydrazide]
[1]
  inhibition at 50 µM: 56%

## COc1cc([C@@H]2c3cc4c(cc3[C@@H](O[C@@H]3O[C@@H]5CO[C@@H](C)O[C@H]5[C@H](O)[C@H]3O)[C@H]3COC(=O)[C@H]23)OCO4)cc(OC)c1O [etoposide]
[2]
  inhibition at 50 µM: 70%
